Entries after “also recorded” stand apart in the source; their conditions may differ.
Key:
[1] = target: T1, EDG-6 (Homo sapiens, UniProt Q9HBW0); experiment: NF-κB reporter in 293-EBNA cells, EDG-6; assay type: cell-based; conditions: 10 μM LPA overnight
T1 construct: expressed in transfected cells; host or cells: 293-EBNA
Excerpt: (§1) LPA, like S1P, is abundant in serum, but not plasma. Moreover, LPA is produced as a consequence of phospholipase A2 with or without the contribution of phospholipase D (depending on the phospholipid substrate). […] To date we have identified three subtypes of edg receptors that respond to LPA as an agonist. These are EDG-2, […] (referred to also as LPA1, LPA2 and LPA3, respectively (Chun, J, Contos, JJA and Munroe, DG. 1998. A growing family of receptor genes for lysophophatidid acid (LPA) and other lyso-phospholipids. Cell Biochem Biophys (in press)). The EDG-5 receptor is set out in co-pending U.S. application Ser. No. 08/997,803 to MUNROE et al., incorporated herein to reference and the amino acid sequence and cDNA sequence for the EDG-6 receptor is set out in FIGS. 21 and 22, respectively. To determine whether these receptors might mediate inflammatory responses, each was cotransfected separately with SRE, NF-κB or AP-1 reporter genes. […] This transcription factor, like NF-κB has been implicated in inflammatory and neoplastic signal transduction, though the gene targets of its action are largely distinct from those of NF-κB (Adcock I M. 1997. Transcription factors as activators of gene transcription; AP-1 and NF-κB. Monaldi Arch Chest Dis 52:178–186. Review). […]

[2] = tested on: HeLa cells; experiment: IL-8 response (IL-8 ELISA) in HeLa cells; assay type: cell-based, human
Experimental: • Cells: HeLa (adenocarcinoma, human) • Media: DMEM/F12+10% FBS Adherent • 1) Cells were seeded at 0.2×10^6 cells/well in 6-well plates. • 2) Confluency of cells after 24–32 hrs was between 60–70%. B. Overnight Serum-Starvation • 1) Media was aspirated (no PBS wash). • 2) 1.5 ml 0.5% FBS media was added to each well. C. Treatments and Collection • 1) Made up all required solutions in 0.5% FBS media (control). Handling of […] for use in NF-κB experiments requires that sonication, commonly used to resuspend LPA, not be done; NF-κB may be activated by lipid peroxides created through vigorous frothing. Solutions:
D. Detection of Interleukin-8 (IL-8) using an IL-8 ELISA (Enzyme-Linked ImmunoSorbent Assay). • 1) The Quantikine Human IL-8 Immuno Assay Kit was obtained from R&D Systems (Cat. D8050). • 2) The kit and all samples were allowed to equlibrate to room temperature prior to use. • 3) All reagents were provided in the kit and prepared according to the instructions provided. • 4) The assay procedure was followed as recommended in the kit for cell culture supernatant samples. • 5) ELISA was performed on 50 μl samples of culture supernatant and duplicate samples were measured for each well. Each treatment was performed on triplicate wells. • 6) Plates were read on UV max kinetic microplate reader (Molecular Devices), set to 450 nm and correction set to 575 nm, using Wsoftmax sotware version 2.34.
• 1) Cells were seeded at 2.5×10^4 cells/well in 24-well plates. • 2) Confluency of cells after 24–32 hrs was between 60–70%. B. Overnight Serum-Starvation and PTX Pre-Treatment • 1) Media was aspirated (no PBS wash). • 2) 0.5 ml 0.5% FBS media was added to all wells not requiring PTX pre-treatment. • 3) For well requiring PTX; 0.5 ml 0.5% FBS media containing 50 ng/ml PTX (1 volume PTX (RBI Cat. P140): 1 volume DTT, incubate 37° C. for 30 minutes then dilute to 50 ng/ml) was added. C. Treatments and Collection • 1) Made up all required solutions in 0.5% FBS media (control). […] D. Refer to Procedure #1 For HeLa Cells (D).

[3] = target: T1, EDG-6; experiment: SRE reporter in 293-EBNA cells, EDG-6; assay type: cell-based; conditions: 10 μM LPA
Excerpt: as §1

[4] = tested on: pcDNA3-transfected 293-EBNA cells; experiment: AP-1 reporter in 293-EBNA cells, empty vector pcDNA3; assay type: cell-based; conditions: 10 μM LPA
Excerpt: as §1

[5] = target: T2, EDG-2 (Homo sapiens, UniProt Q92633); experiment: NF-κB reporter in 293-EBNA cells, EDG-2; assay type: cell-based; conditions: 10 μM LPA overnight
T2 construct: expressed in transfected cells; host or cells: 293-EBNA
Excerpt: as §1

[6] = target: T1, EDG-6; experiment: AP-1 reporter in 293-EBNA cells, EDG-6; assay type: cell-based; conditions: 10 μM LPA
Excerpt: as §1

[7] = tested on: Human Umbilical Vein Endothelial Cells (HUVEC); experiment: IL-8 response in primary cultured HUVEC; assay type: cell-based; conditions: 5 μM, 6 hr
Experimental: Cells: HUVEC (Clonetics, Cat. CC-2519) were passaged according to supplier's instructions and used at passage 3. Cells were plated at 20,000 cells/well into 24-well plates. […] LPA induced a 3-fold IL-8 increase at this concentration. […] As shown below in FIG. 23, three cloned edge receptors respond to LPA as an agonist, and all three appear to transduce NF-κB activation in an agonist-dependent manner.

[8] = target: T3, human EDG-4 (Homo sapiens, UniProt O95136, F273L/I205V); experiment: NF-κB luciferase reporter in 293-EBNA cells, human EDG-4; assay type: cell-based; conditions: Assay 3; pC3-hedg4#36; 3 μM; 6 hours
T3 construct: a 1059 bp open reading frame (excluding the stop codon) corresponding to the complete human edg-4 coding region; expressed in transfected cells; host or cells: 293-EBNA
Experimental: (§2) The protocol described in Example 11 for Assay 1 was allowed except for the following changes: • 1) 100 mm plates of 293-EBNA ith a confluency of ˜80% were used for transfection, • 2) SRE Cotransfection: 0.5 μg of 2XSREtk-p4Luc-zeo reporter DNA and 3.5 μg pcDNA3, EDG-1, EDG-3 pC3-hE3P2, different from the clone used in Assay 2 of Example 11) or the newly cloned human EDG-4 (pC3-hedg4#36); NF-κB Cotransfection: 2 μg 6XNFκBtk-p4LUc-zeo reporter DNA and 2.0 μg pcDNA3, EDG-1, EDG-3 (pC3-hE3HP2), or EDG-4 (pC3-hedg4#36). Expression plasmid and reporter plasmid DNA samples were combined and diluted in 750 μl of DMEM/F12 (serum free media) and 20 μl Plus Reagent (Lipofectamine Plus Kit, Life Technologies Cat. 109640-13), and incubated at room temperature for 15 min. • 3) 30 μl Lipofectamine Reagent (Lipofectamine Plus Kit) was diluted in 750 μl DMEM/F12. The diluted Lipofectamine was then combined with the DNA/Plus mixture and incubated at room temperature for 15 min. • 4) The 293-EBNA plates were washed once with PBS and 5 ml DMEM/F12 was added to each plate. • 5) DNA/Plus/Lipofectamine mixture was added to each plate of 293-EBNA cells. […]

[9] = target: T4, EDG-1 (Homo sapiens, UniProt P21453); experiment: NF-κB luciferase reporter in 293-EBNA cells, EDG-1; assay type: cell-based; conditions: Assay 3; 3 μM; 6 hours
Experimental: as §2

[10] = target: rat EDG-4 (Rattus norvegicus, UniProt P47752); experiment: IL-8 response in COS-1 cells transfected with rat EDG-4 expression plasmid; assay type: cell-based; design: transient transfection with a eukaryotic expression vector expressing full-length rat edg-4 cDNA; expressed in transfected cells; conditions: COS-1, EDG-4 expression plasmid; 5 μm S1P overnight
[11] = target: T4, EDG-1; experiment: SRE luciferase reporter (2XSREtk-p4Luc-zeo) in 293-EBNA cells, EDG-1; assay type: cell-based; conditions: Assay 3; 3 μM; 6 hours
Experimental: as §2

T1 sequence (Q9HBW0 with tags, fused parts or gaps): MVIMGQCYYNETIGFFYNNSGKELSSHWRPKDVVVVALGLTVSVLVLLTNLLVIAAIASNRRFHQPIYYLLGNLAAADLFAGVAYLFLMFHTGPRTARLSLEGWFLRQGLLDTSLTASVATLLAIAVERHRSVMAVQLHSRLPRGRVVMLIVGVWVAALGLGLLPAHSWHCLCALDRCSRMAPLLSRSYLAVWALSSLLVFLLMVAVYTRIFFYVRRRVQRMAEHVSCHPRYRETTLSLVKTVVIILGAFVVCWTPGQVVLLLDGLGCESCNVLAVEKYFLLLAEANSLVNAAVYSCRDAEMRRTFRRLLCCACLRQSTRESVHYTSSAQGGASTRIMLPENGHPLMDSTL
T4 sequence (P21453 whole entry): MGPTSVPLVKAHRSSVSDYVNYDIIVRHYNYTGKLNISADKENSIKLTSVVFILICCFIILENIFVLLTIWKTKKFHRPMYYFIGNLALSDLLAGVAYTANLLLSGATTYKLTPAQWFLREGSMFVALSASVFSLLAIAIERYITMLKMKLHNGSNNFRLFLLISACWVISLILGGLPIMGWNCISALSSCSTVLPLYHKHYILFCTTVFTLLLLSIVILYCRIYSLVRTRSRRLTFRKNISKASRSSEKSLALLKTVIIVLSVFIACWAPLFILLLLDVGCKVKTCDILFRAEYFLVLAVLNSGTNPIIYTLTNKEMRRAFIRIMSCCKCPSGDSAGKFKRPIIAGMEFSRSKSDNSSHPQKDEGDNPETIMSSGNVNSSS
T3 sequence (O95136 whole entry I205V/F273L): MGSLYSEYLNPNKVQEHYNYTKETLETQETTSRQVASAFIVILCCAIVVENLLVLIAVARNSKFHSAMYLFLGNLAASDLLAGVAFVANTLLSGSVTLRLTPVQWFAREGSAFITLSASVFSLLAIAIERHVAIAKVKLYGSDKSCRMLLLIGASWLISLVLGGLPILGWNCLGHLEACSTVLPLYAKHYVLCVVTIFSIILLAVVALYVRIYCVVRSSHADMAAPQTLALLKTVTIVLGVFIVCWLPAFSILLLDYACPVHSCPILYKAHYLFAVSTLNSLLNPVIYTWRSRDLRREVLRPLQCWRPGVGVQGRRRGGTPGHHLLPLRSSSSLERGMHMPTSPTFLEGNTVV
T2 sequence (Q92633 whole entry): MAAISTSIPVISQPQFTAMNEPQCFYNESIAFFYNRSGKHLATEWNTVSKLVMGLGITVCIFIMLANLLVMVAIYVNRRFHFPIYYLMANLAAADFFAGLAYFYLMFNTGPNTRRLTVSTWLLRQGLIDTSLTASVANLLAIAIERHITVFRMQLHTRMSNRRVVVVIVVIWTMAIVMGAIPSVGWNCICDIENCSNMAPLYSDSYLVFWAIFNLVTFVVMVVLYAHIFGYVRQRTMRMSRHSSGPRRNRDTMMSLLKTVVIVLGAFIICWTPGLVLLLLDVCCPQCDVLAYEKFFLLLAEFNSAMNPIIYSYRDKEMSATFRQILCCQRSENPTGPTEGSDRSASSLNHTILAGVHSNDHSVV
rat EDG-4, sequence (P47752 whole entry): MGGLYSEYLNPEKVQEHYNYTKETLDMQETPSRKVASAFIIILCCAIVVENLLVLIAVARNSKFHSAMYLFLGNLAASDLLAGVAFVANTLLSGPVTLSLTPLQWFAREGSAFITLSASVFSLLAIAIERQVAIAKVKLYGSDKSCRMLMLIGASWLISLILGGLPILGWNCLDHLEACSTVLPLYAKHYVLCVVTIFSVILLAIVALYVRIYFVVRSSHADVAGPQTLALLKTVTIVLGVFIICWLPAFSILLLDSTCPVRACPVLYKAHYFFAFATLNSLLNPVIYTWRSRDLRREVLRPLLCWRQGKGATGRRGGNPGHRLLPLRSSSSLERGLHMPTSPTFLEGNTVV

Row | Compound | activation of the NF-κB reporter [1] | IL-8 response ([2]; 1 and 10 μM, 1, 6 or 24 hours) | induction of the SRE reporter [3] | endogenous AP-1 reporter response vs untreated control cells [4] | activation of the NF-κB reporter [5] | induction of the AP-1 reporter [6] | IL-8 induction ([2]; 6 hours, concentration series) | IL-8 levels, increase over untreated controls [7] | induction of the NF-κB reporter gene [8] [fold] | luciferase activity (NF-κB reporter) [9] | increase in IL-8 release compared to untreated cells [10] [fold] | increase in luciferase activity (SRE reporter) [11] [fold]
1 | lysophosphatidic acid [LPA] | 3–4 fold | not | strongly induced | about 1.5 fold | 3–4 fold | strongly induced |  |  |  |  |  | 
2 | CCCCCCCCCCCCC/C=C/[C@@H](O)[C@@H](N)COP(=O)([O-])OCC[N+](C)(C)C [SPC, sphingosylphosphorylcholine] |  |  |  |  |  |  | can induce IL-8 in HeLa cells in a concentration-dependent manner; also recorded: significantly induced IL-8 production | Marginal increases | 9 |  |  | 
3 | CCCCCCCCCCCCC/C=C/[C@@H](O)[C@@H](N)COP(=O)(O)O [S1P, sphingosine 1-phosphate] |  |  |  |  |  |  |  | approximately 5 fold | 4.5 | no increase in luciferase activity | 2 | 8

From patent US7052850B2, “Isolated human EDG-4 receptor” (priority 1997, dated 2006)
